Data on 83 molecules can be found in ChEMBL document CHEMBL1157539, “Thousands of chemical starting points for antimalarial lead identification” (Nature, 2010).

The assay deals with Plasmodium falciparum. Kind of assay: GSK_TCMDC: Inhibition of Plasmodium falciparum 3D7 in whole erythrocytes, using parasite LDH activity as an index of growth. To be noted: Plasmodium falciparum, 3D7. It counts as functional, organism-based.
The molecule `Oc1cc(NC[C@@H]2CCC[C@@H]2NCc2ccc(Cl)c(Cl)c2)nc2ccccc12` gave an XC50 of 602 nM. With `O=C(/C=C/c1ccc(Cl)c(Cl)c1)NCCCCCN1CCC(c2c[nH]c3c(-c4ccccc4)cccc23)CC1`, the XC50 worked out at 246 nM.

Molecule `CN(C)CCCN(C)C(=O)c1cc2cc(-c3ccccc3)ccc2n1S(=O)(=O)c1ccccc1` had an XC50 of 462 nM. `CCNc1cc(CCCC(=O)OCC)nc(Nc2ccc(C)cc2)n1` had an XC50 of 771 nM.

In the case of `Fc1ccc2[nH]c(-c3cccc(-c4cccc(CN5CCN(c6ccncc6)CC5)c4)c3)nc2c1`, the XC50 was determined as 145 nM. The same measure for `O=C(Nc1cccc(N2CCC(NCCCc3ccncc3)CC2)c1)c1cccc(C(F)(F)F)c1`: 853 nM.

Consider `Fc1ccc2[nH]c(-c3ccc(-c4ccc(CNCCN5CCNCC5)cc4)cc3)nc2c1`, for which the XC50 is 850 nM. Molecule `COc1cc(Cc2cnc(N)nc2N)cc(OCCCCC2NC(=O)NC2=O)c1OC` (stereo not drawn) registered an XC50 of 714 nM. On to `Clc1cc(Cl)cc(Nc2ccnc(Nc3cc(Cl)cc(Cl)c3)n2)c1`, for which the XC50 was found to be 672 nM. With `COc1ccc(-c2cccc(NC(=O)c3ccc(F)cc3)c2)cc1CNC(C)C`, the XC50 was found to be 1380 nM. As to `CCC(C)(C)c1ccc(OCC(O)CN2CCCCC2)c(C(C)(C)CC)c1` (stereo not drawn), the XC50 is 1300 nM.

The molecule `Nc1cccc(C=CC(=O)N=c2cc[nH]c3ccccc23)c1` showed an XC50 of 1060 nM. As for `CCc1cn2c3c(cc(C(=O)N[C@@H](Cc4cc(F)cc(F)c4)[C@H](O)CNC4CC4)cc13)N(C)S(=O)(=O)CC2`, the XC50 was 119 nM. As to `Cc1cccc2nc(-c3ccc(-c4cccc(CN5CCC(C(N)=O)CC5)c4)s3)[nH]c12`, the XC50 was determined as 1260 nM. As to `CCc1ccc(C2CCN(CCCCNC(=O)c3ccc(NC(=O)c4ccc(Cl)cc4)cc3)CC2)c(OC(C)=O)c1`, the XC50 was 145 nM.

Molecule `CN1CCN(c2nsc3ccc(-c4ccc(OCCN5CCCC5)cc4)cc23)CC1` gave an XC50 of 826 nM. As for `O=C(O[C@@H]1CN[C@H](C#Cc2cc3ncnc(Nc4ccc5c(cnn5Cc5cccc(F)c5)c4)c3s2)C1)N1CCCC1`, the XC50 was determined as 757 nM. Then `COc1ccc(-c2ccc(Nc3cccc(S(=O)(=O)CCN4CCC(CCN(C)C)CC4)c3)nc2)cn1`, with 1120 nM.

As to `O=C(NC1CCCc2ccccc21)C1CCCN(C(=O)c2ccc(O)c(-c3ccc(Cl)c(Cl)c3)c2)C1` (stereo not drawn), the XC50 was 1140 nM. `CC(c1cccc(S(=O)(=O)NCc2cccc(C(F)(F)F)c2)c1)N1CCC(N2CCCCC2)CC1` (stereo not drawn): the XC50 was determined as 695 nM.

As for `CC1(C)NC(N)=NC(=N)N1OCCCc1cccc(C(F)(F)F)c1`, the XC50 worked out at 3.2 nM. `CCCN1CCc2c(sc3nc(SCC(=O)Nc4ccc(C)cc4)n(-c4ccc(C)cc4)c(=O)c23)C1` yielded an XC50 of 869 nM. Then `COc1ccc(C(=O)N[C@@H](CC(C)C)C(=O)NC2CC[C@@H](C)N(C(=O)Nc3ccc(Cl)cc3)CC2=O)cc1OCCN1CCOCC1` (stereo partly drawn), with 152 nM.

As for `Cc1noc(-c2ccccc2)c1NC(=O)NC1CCN(CCCCCNC(=O)/C=C/c2ccc(Cl)c(Cl)c2)CC1`, the XC50 was found to be 985 nM. Consider `O=C1NC(=O)C(c2cccc(NC(=O)c3ccncc3)c2)=C1c1ccccc1`, for which the XC50 stood at 735 nM. For the molecule `O=C(Nc1cccc(-c2ccc(-c3nc4cc(C(F)(F)F)ccc4[nH]3)cc2)c1)c1ccoc1`, the XC50 was 714 nM.

Molecule `N#Cc1ccccc1N1CCN(C2CCC(NC(=O)c3n[nH]c4cc(C(F)(F)F)ccc34)CC2)CC1` (stereo not drawn) returned an XC50 of 1370 nM. Then `C#CCNC(=O)c1ccc(-c2ccnc(Nc3cccc(CCCN4CCOCC4)c3)n2)s1`, with 1000 nM.

As to `Cc1cc(Nc2cccc(C(F)(F)F)c2)nc2ccc(NC(=O)c3ccc(=O)[nH]c3)cc12`, the XC50 came to 487 nM. Regarding `O=S(=O)(c1cccc(F)c1)c1ccc(Nc2ncnc3cc(Br)sc23)cc1Cl`, the XC50 was determined as 1030 nM.

Molecule `CC(C)[C@H](NC(=O)c1c(F)cccc1F)C(=O)Nc1ccc(Cc2nc3ccccc3s2)cc1` gave an XC50 of 498 nM. In turn, `CCCC(C(CC1CCC(C)CC1)C(=O)NC(CCCNc1ncccn1)C(=O)Nc1nccs1)N(O)C=O` (stereo not drawn) showed an XC50 of 187 nM. `CC(Cc1ccc(NC(=O)c2ccc(CNCc3ccccc3)cc2)cc1)N(CCc1cccc(Cl)c1)C(=O)OC(C)(C)C` (stereo not drawn) displayed an XC50 of 974 nM. The molecule `COc1ccc(CN(C2CC2)C(C)C(=O)c2[nH]c(C)c(C(C)=O)c2C)cc1` (stereo not drawn) had an XC50 of 1590 nM. For `O=C(Nc1ccc(Cl)cc1Cl)N[C@H]1CCN(CCCCCNC(=O)C2CC2c2ccc(Cl)c(Cl)c2)C1` (stereo partly drawn), the XC50 came to 989 nM. The same measure for `O=C(/C=C/c1ccc(Cl)c(Cl)c1)NCCCCCN1CCC(NC(=O)Nc2ccc(Cl)c(Cl)c2)CC1`: 892 nM. For the molecule `CCC[C@@H]([C@@H](CC1CCCCC1)C(=O)N[C@H](C(=O)Nc1nccs1)C(C)(C)SCCOCCOCC)N(O)C=O`, the XC50 turned out to be 82.2 nM.

For `O=C(CCc1cccnc1)Nc1cccc(-c2ccc(-c3nc4cc(C(F)(F)F)ccc4[nH]3)cc2)c1`, the XC50 amounted to 867 nM. For the molecule `Cc1cc(C(F)(F)F)n2nc(C3CCN(Cc4cc(C)c(O)c(C)c4)C3)cc2n1` (stereo not drawn), the XC50 was found to be 758 nM. Molecule `CC(COc1ccc2c(c1)OC(C)(C)CC2c1ccccc1)NCC(O)c1cccc(Cl)c1` (stereo not drawn) returned an XC50 of 752 nM.

Regarding `Fc1ccc2[nH]c(-c3ccc(-c4ccc(CNCc5cnn(-c6ccccc6)n5)cc4)cc3)nc2c1`, the XC50 was 540 nM.

`CCC(=C(CC)c1ccc(O)c(CNC2CCCCC2)c1)c1ccc(O)c(CNC2CCCCC2)c1`: the XC50 amounted to 152 nM.

`OC(c1cccc(OCc2ccccc2)c1)C1CN(CCc2ccccc2)CCC1(O)c1ccccc1` (stereo not drawn) gave an XC50 of 218 nM. In turn, `CN(C)CCNC(=O)c1ccc2c(c1)n(C1CCN(S(=O)(=O)c3ccc(-c4ccccc4)cc3)CC1)c(=O)n2CC1CCCCC1` had an XC50 of 624 nM. The molecule `COc1ccc2c(c1)[nH]c1c(C=Cc3ccccc3)nccc12` came in with an XC50 of 379 nM.

Regarding `O=C(Nc1ccc(Cl)cc1)Nc1nc2cc([N+](=O)[O-])ccc2[nH]1`, the XC50 came to 801 nM. Molecule `CCC1N=C(N)N=C(N)N1OCc1cccc2ccccc12` (stereo not drawn) returned an XC50 of 3.2 nM. In turn, `Cc1ccc(NC(=O)c2ccc(CN3CCCN(Cc4cccc(O)c4)CC3)cc2)cc1` came in with an XC50 of 743 nM. `CC(CCc1ccccc1)NCC(O)c1ccc2c(c1)S(=O)(=O)c1ccccc1N2` (stereo not drawn) gave an XC50 of 1220 nM. `COc1cccc(OC2CCN(C(=O)c3ccc(-c4ccc(N5CCCC5=O)cc4C)cc3)CC2)c1` had an XC50 of 1010 nM.

`COc1ccc2ncc(F)c([C@@H](O)CN3CCC(NCc4cc5c(cn4)OCS5)CC3)c2c1` had an XC50 of 141 nM. For `COc1ccc(-c2cn3c(C(=O)Nc4ccccc4Cl)c(-c4ccccc4)c4c3n2CCCC4)cc1`, the XC50 was 792 nM. Consider `COc1ccc2[nH]c(C)cc(=NN=Cc3ccc(Cl)cc3)c2c1`, for which the XC50 was found to be 228 nM. In the case of `COc1ccccc1N1CCN(C(C(=O)NCc2cccc(F)c2)c2ccc(C)cc2)CC1` (stereo not drawn), the XC50 came to 892 nM. Turning to `CN(c1ccc(NC(=O)CCOc2ccccc2)cc1)C1CCN(Cc2cccc(O)c2)CC1`, the XC50 was determined as 1320 nM. For the molecule `c1ccc(COc2ccc(COc3ccc(Cn4ccnc4)cc3)cc2)cc1`, the XC50 was found to be 947 nM. For `Cc1cccc2nc(-c3ccc(-c4cccc(CN5CCC(C(N)=O)CC5)c4)cc3)[nH]c12`, the XC50 is 1770 nM. In the case of `Cc1ccc(NC(=O)c2ccc3ncccc3c2)cc1OC1CCN(Cc2ccco2)C1` (stereo not drawn), the XC50 is 1250 nM. The molecule `O=C(CCCCCNC(=O)c1ccc(O)c(-c2ccc(Cl)c(Cl)c2)c1)NC1CCCc2ccccc21` (stereo not drawn) gave an XC50 of 759 nM. The same measure for `O=C(NC1CCCCC1)N(Cc1cccc(-c2ccc(CNCc3ccc4c(c3)OCO4)cc2)c1)C1CCN(Cc2ccccc2)CC1`: 788 nM; for `COc1ccc2nc(N=C3NC4(c5ccccc5)NC(=Nc5nc6ccc(OC)cc6[nH]5)NC4(c4ccccc4)N3)[nH]c2c1` (stereo not drawn): 204 nM. Then `CS(=O)(=O)c1ccc(CCNCc2ccc(-c3ccc(CN(C(=O)C4CCCC4)C4CCN(Cc5ccccc5)CC4)cc3)nc2)cc1`, with 832 nM; and `COc1ccc2nccc([C@@H](O)CN3CCC(CO)(NCc4cc5ccccc5o4)CC3)c2c1`, with 1370 nM. For the molecule `COc1cc(F)c2ncc(Cl)c([C@H](O)CN3CCC(NCc4ccc5c(n4)NC(=O)CO5)CC3)c2c1`, the XC50 was determined as 161 nM. On to `Cc1cc(NC(=O)c2cccs2)ccc1OC1CCN(Cc2ccccc2)C1` (stereo not drawn), for which the XC50 came to 895 nM. Turning to `O=C(NC1CCN(Cc2ccc(O)cc2)CC1)c1ccc(Cl)c(Cl)c1`, the XC50 was determined as 1180 nM. The molecule `CC(=O)Nc1ccc(OCCCCN(Cc2ccccc2C(F)(F)F)c2ccc(C#N)c(C(F)(F)F)c2)cc1` had an XC50 of 1390 nM. `CCN(CCCN1CCCCC1)c1cc(C)nc(Nc2ccc(Cl)cc2)n1` showed an XC50 of 385 nM. On to `O=C(c1csc(-c2cccnc2)n1)N1CCc2cc3nccc(N4CCN5CCC[C@H]5C4)c3cc21`, for which the XC50 was 695 nM. For `COc1cccc(CN2CCC(CCOC(c3ccccc3)c3ccccc3)CC2)c1O`, the XC50 was 730 nM. Then `O=C(NCc1cccc(F)c1)Nc1ccc(-c2cccc(-c3nc4ccccc4[nH]3)c2)cc1`, with 894 nM; and `Nc1ncc(-c2cccc(F)c2)cc1-c1nc2cc(F)ccc2[nH]1`, with 175 nM; and `OC(CN1c2ccccc2Sc2ccccc21)CN(C1CCCCC1)C1CCCCC1` (stereo not drawn), with 651 nM.

In turn, `O=C(Nc1cccc(-c2ccc(-c3nc4cc(C(F)(F)F)ccc4[nH]3)cc2)c1)c1cccnc1` came in with an XC50 of 572 nM. The molecule `CC(=NNC(=N)N)c1ccc2c(ccc3ccccc32)c1` had an XC50 of 833 nM. `O=C(Nc1cccc(-c2ccc(-c3nc4cc(F)ccc4[nH]3)cc2)c1)Nc1ccc(Cl)c(Cl)c1` came in with an XC50 of 139 nM. The molecule `COc1ccc(F)cc1-c1cccc(CNC2CCN(CC3Cn4c(=O)ccc5ccc(F)c3c54)CC2)c1` (stereo not drawn) had an XC50 of 830 nM. `CC(=O)N(C)C1CCN(Cc2ccc(-c3ccc(-c4nc5cc(F)ccc5[nH]4)s3)cc2)C1` (stereo not drawn): the XC50 worked out at 971 nM.

Molecule `O=C(/C=C/c1ccc(Cl)c(Cl)c1)NCCCCCN1CCCC(CCCNC(=O)Nc2ccc(C(F)(F)F)cc2)C1` (stereo not drawn) had an XC50 of 525 nM.

`Cc1[nH]c(C)c(-c2ccc(C#Cc3ccc(F)cc3F)cc2)c(=O)c1Br` registered an XC50 of 30.1 nM. `CC1(C)Cc2c([nH]c3ccccc23)C(CCCCCCCCC2=NC(C)(C)Cc3c2[nH]c2ccccc32)=N1` came in with an XC50 of 933 nM. In turn, `Oc1cccc(/C=N/Nc2ccnc3cc(Cl)ccc23)c1` returned an XC50 of 728 nM. Then `COc1ccc2ncc(C#N)c(CCN3C[C@H](CNCc4ccccc4)[C@H](O)C3)c2n1`, with 1060 nM.
